Assay results reported in article PMC6416077 (Journal of the American Chemical Society, 2019).

Target: T1, HsOMT (Hpm5) (Hypomyces subiculosus, UniProt B3FWS1)
T1 sequence (B3FWS1 1-398): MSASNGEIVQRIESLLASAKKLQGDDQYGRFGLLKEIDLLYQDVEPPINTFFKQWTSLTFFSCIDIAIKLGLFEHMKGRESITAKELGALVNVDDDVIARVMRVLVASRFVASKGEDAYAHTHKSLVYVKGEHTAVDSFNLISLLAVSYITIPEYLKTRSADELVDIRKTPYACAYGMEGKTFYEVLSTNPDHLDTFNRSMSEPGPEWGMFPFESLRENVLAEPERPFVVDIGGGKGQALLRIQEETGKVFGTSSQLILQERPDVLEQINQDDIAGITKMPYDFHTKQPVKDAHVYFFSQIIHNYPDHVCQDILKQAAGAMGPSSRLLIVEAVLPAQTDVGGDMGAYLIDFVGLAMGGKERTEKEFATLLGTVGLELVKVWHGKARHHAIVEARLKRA
Test: biocatalytic O-methylation in S. cerevisiae expressing HsOMT, LC-MS
Format: cell-based
Conditions: native substrate; OH-5 (para) methylation to 5-O-methyl-DHZ

C[C@H]1C/C=C/[C@@H](O)CCC/C=C/c2cc(O)cc(O)c2C(=O)O1 [compound 3, DHZ]
biocatalytic O-methylation in S. cerevisiae expressing HsOMT, LC-MS: methylates the C-5 phenolic hydroxyl of the RAL14
